Test results taken from US11046697B2, “Compounds and compositions useful for treating disorders related to NTRK” (BLUEPRINT MEDICINES CORPORATION, priority 2015, dated 2021).
Like-named read-outs stand apart in the source and are kept apart here.

Columns and labels:
[1] = system: KM12 Cliff (G595R) cell line; test: NTRK G595R mutant cellular assay (CellTiter-Glo growth inhibition); type: cell-based; settings: 72 hr, CellTiter-Glo
Procedure: (§1) NTRK Wild Type and G595R Mutant Cellular Assays Protocol
(§2) KM12 wild type colon carcinoma cell line harboring the TPM3-NTRK1 fusion protein was obtained from the National Cancer Institute (NCI). This line has been previously shown to be dependent upon the NTRK activity derived from the NTRK fusion protein for growth and survival. […] Cells were first plated in 384-well plates at 1000 cells/well in complete media (10% FBS and 1% pen/strep) and incubated overnight at 37° C. Cells were then dosed with test articles at varying concentrations using the Bravo liquid handling system. […] Each compound was run in duplicate per plate. […] 72 hr after dosing, assay plates were developed using CellTiter-Glo (Promega) and resultant luminescence was read on the Envision plate reader. IC50 determinations were calculated using a 4-parameter curve fitting algorithm

[2] = biological target: T1, wild type NTRK1 enzyme (Homo sapiens, UniProt P04629); test: NTRK1 Wild Type Assay at 1 mM ATP; type: biochemical; settings: 1 mM ATP; read-out: Enz NTRK1 IC50
T1 construct: purchased BPS Bioscience 40280
T1 sequence (P04629 440-796 limits assumed): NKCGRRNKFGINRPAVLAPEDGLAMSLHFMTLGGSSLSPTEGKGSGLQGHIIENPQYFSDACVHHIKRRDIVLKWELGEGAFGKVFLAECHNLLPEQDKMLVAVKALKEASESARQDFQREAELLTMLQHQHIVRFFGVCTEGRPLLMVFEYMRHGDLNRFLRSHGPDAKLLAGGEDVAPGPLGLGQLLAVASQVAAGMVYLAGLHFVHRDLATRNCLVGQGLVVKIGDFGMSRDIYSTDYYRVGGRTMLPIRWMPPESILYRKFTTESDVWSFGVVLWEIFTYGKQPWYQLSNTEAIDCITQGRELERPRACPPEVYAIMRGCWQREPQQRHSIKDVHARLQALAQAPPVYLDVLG
Procedure: NTRK1 Wild Type Assay at 1 mM ATP
The reaction was stopped by the addition of 70 μL of Stop buffer (100 mM HEPES pH 7.5, 0.015% Brij 35, 35 mM EDTA and 0.2% of Coating Reagent 3 (Caliper Lifesciences)). The plate was then read on a Caliper EZReader 2 (protocol settings: −1.7 psi, upstream voltage −500, downstream voltage −3000, post sample sip 35s).

[3] = system: KM12 wild type colon carcinoma cell line harboring the TPM3-NTRK1 fusion protein; test: NTRK wild type cellular assay (CellTiter-Glo growth inhibition); type: cell-based; settings: 72 hr, CellTiter-Glo, read-out: KM12 (WT) IC50
Procedure: as §1, §2

Structure (SMILES)	IC50 [1] [µM]	IC50 [2] [µM]	IC50 [3] [µM]	IC50 ([1]; Homo sapiens, KM12, 72 h) [µM]	IC50 ([3]; Homo sapiens, KM12, 72 h) [µM]
CN(Cc1cccc(C#N)c1)C(=O)c1n[nH]c2ncnc(N[C@@H]3CC[C@@H](O)[C@H]3O)c12 [Compound 134]	0.1 to 1	0.1 to 1	0.1 to 1	–	–
CN(Cc1cc(F)cn(C)c1=O)C(=O)c1n[nH]c2ncnc(N[C@@H]3CCC[C@H]3O)c12 [Compound 136]	–	< 0.01	–	0.01 to 0.1	0.01 to 0.1
CN(Cc1cccc(Cl)c1)C(=O)c1n[nH]c2ncnc(N[C@@H]3CC[C@@H](O)[C@H]3O)c12 [Compound 137]	0.01 to 0.1	0.01 to 0.1	0.01 to 0.1	–	–
CN(Cc1cccnc1Cl)C(=O)c1n[nH]c2ncnc(N[C@@H]3CC[C@@H](O)[C@H]3O)c12 [Compound 138]	0.1 to 1	0.1 to 1	0.1 to 1	–	–
CN(Cc1cccc(F)c1F)C(=O)c1n[nH]c2ncnc(N[C@@H]3CC[C@@H](O)[C@H]3O)c12 [Compound 139]	0.01 to 0.1	0.01 to 0.1	0.01 to 0.1	–	–
CN(Cc1cccc(C#N)c1F)C(=O)c1n[nH]c2ncnc(N[C@@H]3CC[C@@H](O)[C@H]3O)c12 [Compound 142]	0.1 to 1	0.01 to 0.1	0.01 to 0.1	–	–
O=C(c1n[nH]c2ncnc(N[C@@H]3CC[C@@H](O)[C@H]3O)c12)N1C[C@@H](F)C[C@@H]1c1ccccc1 [Compound 144]	0.1 to 1	0.01 to 0.1	0.01 to 0.1	–	–
O=C(c1n[nH]c2ncnc(N[C@@H]3CCOC[C@H]3O)c12)N1C[C@@H](F)C[C@@H]1c1ccccc1 [Compound 145]	–	0.1 to 1	–	0.1 to 1	0.01 to 0.1
CN(Cc1cc(F)cn(C)c1=O)C(=O)c1n[nH]c2ncnc(N[C@@H]3CC[C@@H](O)[C@H]3O)c12 [Compound 147]	–	0.01 to 0.1	–	0.1 to 1	0.1 to 1
CN(Cc1cc(Cl)ccc1F)C(=O)c1n[nH]c2ncnc(N[C@@H]3CC[C@@H](O)[C@H]3O)c12 [Compound 148]	–	< 0.01	–	< 0.01	< 0.01
CN(Cc1cc(F)cnc1Cl)C(=O)c1n[nH]c2ncnc(NC3COCCC3O)c12 (stereo not drawn) [Compound 149]	0.01 to 0.1	< 0.01	0.01 to 0.1	–	–
CN(Cc1cc(F)cnc1Cl)C(=O)c1n[nH]c2ncnc(NC3CCOCC3O)c12 (stereo not drawn) [Compound 150]	0.01 to 0.1	0.01 to 0.1	0.01 to 0.1	–	–
CN(Cc1cc(F)cnc1Cl)C(=O)c1n[nH]c2ncnc(NC3CC(F)CC3O)c12 (stereo not drawn) [Compound 151]	0.01 to 0.1	0.01 to 0.1	0.01 to 0.1	–	–
O=C(c1n[nH]c2ncnc(N[C@H]3[C@H](O)[C@H](O)[C@@H]4C[C@@H]43)c12)N1C[C@@H](F)C[C@@H]1c1ccccc1 [Compound 153]	0.01 to 0.1	0.01 to 0.1	0.01 to 0.1	–	–
O=C(c1n[nH]c2ncnc(N[C@@H]3CCC[C@@H](O)[C@H]3O)c12)N1C[C@@H](F)C[C@@H]1c1ccccc1 [Compound 155]	0.01 to 0.1	0.01 to 0.1	0.01 to 0.1	–	–
CN(Cc1cc(Cl)ccc1C#N)C(=O)c1n[nH]c2ncnc(N[C@@H]3CC[C@@H](O)[C@H]3O)c12 [Compound 156, N-(5-chloro-2-cyanobenzyl)-4-(((1R,2S,3R)-2,3-dihydroxycyclopentyl)amino)-N-methyl-1H-pyrazolo[3,4-d]pyrimidine-3-carboxamide]	–	0.01 to 0.1	–	< 0.01	0.01 to 0.1
O=C(c1n[nH]c2ncnc(N[C@@H]3CCOC[C@H]3O)c12)N1C[C@@H](F)C[C@@H]1c1cccc(F)c1 [Compound 158]	–	< 0.01	–	0.01 to 0.1	0.01 to 0.1
CN(Cc1cc(F)cnc1Cl)C(=O)c1n[nH]c2ncnc(N[C@H]3[C@H](O)[C@H](O)[C@@H]4C[C@@H]43)c12 [Compound 159]	–	< 0.01	–	0.01 to 0.1	0.01 to 0.1
CC(c1cc(F)ccc1F)N(C)C(=O)c1n[nH]c2ncnc(NC3COCC(O)C3O)c12 (stereo not drawn) [Compound 160]	0.01 to 0.1	< 0.01	0.01 to 0.1	–	–
CN(Cc1cc(F)cnc1Cl)C(=O)c1n[nH]c2ncnc(N[C@@H]3CCC[C@@H](O)[C@H]3O)c12 [Compound 161]	0.01 to 0.1	0.01 to 0.1	0.01 to 0.1	–	–
CN(Cc1cc(F)ccc1Cl)C(=O)c1n[nH]c2ncnc(N[C@@H]3COC[C@@H](O)[C@H]3O)c12 [Compound 162]	–	< 0.01	–	0.01 to 0.1	0.01 to 0.1
CN(Cc1cc(Cl)ccc1F)C(=O)c1n[nH]c2ncnc(N[C@@H]3COC[C@@H](O)[C@H]3O)c12 [Compound 163]	–	< 0.01	–	0.01 to 0.1	0.01 to 0.1

Structure (SMILES)	IC50 [1] [µM]	IC50 [2] [µM]	IC50 [3] [µM]	IC50 ([1]; Homo sapiens, KM12, 72 h) [µM]	IC50 ([3]; Homo sapiens, KM12, 72 h) [µM]
CN(Cc1cc(F)cc(F)c1F)C(=O)c1n[nH]c2ncnc(N[C@@H]3COC[C@@H](O)[C@H]3O)c12 [Compound 164]	–	0.01 to 0.1	–	0.01 to 0.1	0.01 to 0.1
N#C[C@H]1C[C@@H](O)[C@H](Nc2ncnc3[nH]nc(C(=O)N4C[C@@H](F)C[C@@H]4c4cncc(F)c4)c23)C1 [Compound 166]	0.1 to 1	< 0.01	0.1 to 1	–	–
CN(Cc1cc(Cl)ccc1Br)C(=O)c1n[nH]c2ncnc(N[C@@H]3CCC[C@@H](O)[C@H]3O)c12 [Compound 167]	< 0.01	< 0.01	< 0.01	–	–
O=C(c1n[nH]c2ncnc(NC3CCCC(O)C3O)c12)N1CC(F)CC1c1cccc(F)c1 (stereo not drawn) [Compound 168]	< 0.01	< 0.01	< 0.01	–	–
O=C(c1n[nH]c2ncnc(NC3COCC(O)C3O)c12)N1CC(F)CC1c1cccc(F)c1 (stereo not drawn) [Compound 169]	0.01 to 0.1	0.01 to 0.1	0.01 to 0.1	–	–
O=C(c1n[nH]c2ncnc(N[C@@H]3C=C[C@@H](O)[C@H]3O)c12)N1C[C@@H](F)C[C@@H]1c1cc(F)ccc1F [Compound 170]	< 0.01	< 0.01	< 0.01	–	–
O=C(c1n[nH]c2ncnc(N[C@@H]3C=C[C@@H](O)[C@H]3O)c12)N1C[C@@H](F)C[C@@H]1c1cc(F)cc(F)c1 [Compound 171]	0.01 to 0.1	0.01 to 0.1	0.01 to 0.1	–	–
O=C(c1n[nH]c2ncnc(N[C@@H]3C=C[C@@H](O)[C@H]3O)c12)N1C[C@@H](F)C[C@@H]1c1cccc(F)c1F [Compound 172]	0.01 to 0.1	< 0.01	0.01 to 0.1	–	–
O=C(c1n[nH]c2ncnc(N[C@@H]3CC[C@@H](O)[C@H]3O)c12)N1C[C@@H](F)C[C@@H]1c1cc(F)cc(F)c1 [Compound 173]	–	< 0.01	–	< 0.01	< 0.01
O=C(c1n[nH]c2ncnc(NC3CCOCC3O)c12)N1CC(F)CC1c1cc(F)cc(F)c1 (stereo not drawn) [Compound 174]	< 0.01	< 0.01	< 0.01	–	–
O=C(c1n[nH]c2ncnc(NC3CCOCC3O)c12)N1CC(F)CC1c1cccc(F)c1F (stereo not drawn) [Compound 175]	0.01 to 0.1	< 0.01	0.01 to 0.1	–	–
O=C(c1n[nH]c2ncnc(N[C@@H]3CC[C@@H](O)[C@H]3O)c12)N1C[C@@H](F)C[C@@H]1c1cccc(F)c1F [Compound 176]	0.01 to 0.1	< 0.01	0.01 to 0.1	–	–
O=C(c1n[nH]c2ncnc(N[C@@H]3CCC[C@H]3O)c12)N1C[C@@H](F)C[C@@H]1c1cc(F)cnc1Cl [Compound 177]	–	< 0.01	–	< 0.01	< 0.01
O=C(c1n[nH]c2ncnc(NC3CC(F)CC3O)c12)N1CC(F)CC1c1cc(F)cc(F)c1 (stereo not drawn) [Compound 178]	0.01 to 0.1	< 0.01	0.01 to 0.1	–	–
CN(Cc1cc(F)cc(OC(F)F)c1)C(=O)c1n[nH]c2ncnc(N[C@@H]3CC[C@@H](O)[C@H]3O)c12 [Compound 179]	0.1 to 1	0.01 to 0.1	0.01 to 0.1	–	–
CN(C(=O)c1n[nH]c2ncnc(NC3CC(C(F)F)CC3O)c12)C(CO)c1cc(F)ccc1F (stereo not drawn) [Compound 180]	< 0.01	< 0.01	< 0.01	–	–
N#Cc1cc(F)cc(C2CC(F)CN2C(=O)c2n[nH]c3ncnc(NC4CCOCC4O)c23)c1 (stereo not drawn) [Compound 181]	0.01 to 0.1	< 0.01	0.01 to 0.1	–	–
N#Cc1cc(F)cc(C2CC(F)CN2C(=O)c2n[nH]c3ncnc(NC4COCCC4O)c23)c1 (stereo not drawn) [Compound 182]	0.01 to 0.1	< 0.01	< 0.01	–	–
O=C(c1n[nH]c2ncnc(NC3CCOCC3O)c12)N1CC(F)CC1c1cc(F)ccc1Br (stereo not drawn) [Compound 183]	< 0.01	< 0.01	< 0.01	–	–
N#CC1CC(O)C(Nc2ncnc3[nH]nc(C(=O)N4CC(F)CC4c4cc(F)ccc4F)c23)C1 (stereo not drawn) [Compound 184]	< 0.01	< 0.01	< 0.01	–	–
N#CC1CC(O)C(Nc2ncnc3[nH]nc(C(=O)N4CC(F)CC4c4cc(F)cc(F)c4)c23)C1 (stereo not drawn) [Compound 185]	< 0.01	< 0.01	< 0.01	–	–
O=C(c1n[nH]c2ncnc(N[C@H]3[C@H](O)[C@H](O)[C@@H]4C[C@@H]43)c12)N1C[C@@H](F)C[C@@H]1c1cc(F)cc(F)c1 [Compound 188]	–	< 0.01	–	< 0.01	< 0.01
